Measured values taken from ChEMBL document CHEMBL3774317, “Design and synthesis of novel tamoxifen analogues that avoid CYP2D6 metabolism” (Eur J Med Chem, 2016).

Key:
Format in all cases: functional
NCI-H322M = experiment: Cytotoxicity against human NCI-H322M cells assessed as cell growth at 10^-4 M after 48 hrs by SRB assay; conditions: read-out: Activity
[1] = Cytotoxicity against human OVCAR8 cells assessed as cell growth at 10^-5 M after 48 hrs by SRB assay; conditions: OVCAR-8, 48 h, read-out: Activity
Malme-3M = experiment: Cytotoxicity against human MALME-3M cells assessed as cell growth at 10^-7 M after 48 hrs by SRB assay; conditions: read-out: Activity
NCI-H522 = experiment: Cytotoxicity against human NCI-H522 cells assessed as cell growth at 10^-8 M after 48 hrs by SRB assay; conditions: NCI-H522, 48 h, read-out: Activity
SK-MEL-5 [2] = experiment: Cytotoxicity against human SK-MEL-5 cells assessed as cell growth at 10^-7 M after 48 hrs by SRB assay; conditions: SK-MEL-5, 48 h, read-out: Activity
[3] = Cytotoxicity against human UACC257 cells assessed as cell growth at 10^-5 M after 48 hrs by SRB assay; conditions: UACC-257, 48 h, read-out: Activity
[4] = Cytotoxicity against human SF539 cells assessed as cell growth at 10^-7 M after 48 hrs by SRB assay; conditions: SF-539, 48 h, read-out: Activity
[5] = Cytotoxicity against human LOXIMVI cells assessed as cell growth at 10^-8 M after 48 hrs by SRB assay; conditions: LOX IMVI, read-out: Activity
[6] = Cytotoxicity against human SNB75 cells assessed as cell growth at 10^-4 M after 48 hrs by SRB assay; conditions: SNB-75, 48 h, read-out: Activity
[7] = Cytotoxicity against human OVCAR3 cells assessed as cell growth at 10^-4 M after 48 hrs by SRB assay; conditions: OVCAR-3, 48 h, read-out: Activity
[8] = Cytotoxicity against human MOLT4 cells assessed as cell growth at 10^-8 M after 48 hrs by SRB assay; conditions: MOLT-4, 48 h, read-out: Activity
MDA-MB-435 [9] = experiment: Cytotoxicity against human MDA-MB-435 cells assessed as cell growth at 10^-4 M after 48 hrs by SRB assay; conditions: MDA-MB-435, 48 h, read-out: Activity
NCI-H23 = experiment: Cytotoxicity against human NCI-H23 cells assessed as cell growth at 10^-7 M after 48 hrs by SRB assay; conditions: NCI-H23, 48 h, read-out: Activity
[10] = Cytotoxicity against human UO31 cells assessed as cell growth at 10^-7 M after 48 hrs by SRB assay; conditions: UO-31, 48 h, read-out: Activity
[11] = Cytotoxicity against human UO31 cells assessed as cell growth at 10^-6 M after 48 hrs by SRB assay; conditions: UO-31, 48 h, read-out: Activity
[12] = Cytotoxicity against human UACC257 cells assessed as cell growth at 10^-8 M after 48 hrs by SRB assay; conditions: UACC-257, 48 h, read-out: Activity
SK-MEL-2 = experiment: Cytotoxicity against human SK-MEL-2 cells assessed as cell growth at 10^-4 M after 48 hrs by SRB assay; conditions: SK-MEL-2, 48 h, read-out: Activity
K562 [13] = experiment: Cytotoxicity against human K562 cells assessed as cell growth at 10^-6 M after 48 hrs by SRB assay; conditions: K562, 48 h, read-out: Activity
[14] = Cytotoxicity against human DU145 cells assessed as cell growth at 10^-5 M after 48 hrs by SRB assay; conditions: DU-145, 48 h, read-out: Activity
M14 = experiment: Cytotoxicity against human M14 cells assessed as cell growth at 10^-6 M after 48 hrs by SRB assay; conditions: M14, 48 h, read-out: Activity
K562 [15] = experiment: Cytotoxicity against human K562 cells assessed as cell growth at 0.5 uM after 48 hrs by SRB assay; conditions: K562, 48 h, read-out: Activity
KM12 = experiment: Cytotoxicity against human KM12 cells assessed as cell growth at 0.5 uM after 48 hrs by SRB assay; conditions: KM12, 48 h, read-out: Activity
[16] = Cytotoxicity against human SF539 cells assessed as cell growth at 0.5 uM after 48 hrs by SRB assay; conditions: SF-539, 48 h, read-out: Activity
SK-MEL-5 [17] = experiment: Cytotoxicity against human SK-MEL-5 cells assessed as cell growth at 50 nM after 48 hrs by SRB assay; conditions: SK-MEL-5, 48 h, read-out: Activity
EKVX = experiment: Cytotoxicity against human EKVX cells assessed as cell growth at 5 nM after 48 hrs by SRB assay; conditions: read-out: Activity
MDA-MB-435 [18] = experiment: Cytotoxicity against human MDA-MB-435 cells assessed as cell growth at 5 uM after 48 hrs by SRB assay; conditions: MDA-MB-435, 48 h, read-out: Activity
SK-MEL-28 = experiment: Cytotoxicity against human SK-MEL-28 cells assessed as cell growth at 50 uM after 48 hrs by SRB assay; conditions: SK-MEL-28, 48 h, read-out: Activity
[19] = Cytotoxicity against human NCI-ADR-RES cells assessed as cell growth at 5 nM after 48 hrs by SRB assay; conditions: read-out: Activity
[20] = Cytotoxicity against human OVCAR8 cells assessed as cell growth at 0.5 uM after 48 hrs by SRB assay; conditions: OVCAR-8, 48 h, read-out: Activity
[21] = Cytotoxicity against human HCT116 cells assessed as cell growth at 5 uM after 48 hrs by SRB assay; conditions: HCT-116, 48 h, read-out: Activity
[22] = Cytotoxicity against human HOP62 cells assessed as cell growth at 5 uM after 48 hrs by SRB assay; conditions: HOP-62, 48 h, read-out: Activity
A498 [23] = experiment: Cytotoxicity against human A498 cells assessed as cell growth at 5 uM after 48 hrs by SRB assay; conditions: A498, 48 h, read-out: Activity
[24] = Cytotoxicity against human SNB19 cells assessed as cell growth at 0.5 uM after 48 hrs by SRB assay; conditions: SNB-19, 48 h, read-out: Activity
A498 [25] = experiment: Cytotoxicity against human A498 cells assessed as cell growth at 50 nM after 48 hrs by SRB assay; conditions: A498, 48 h, read-out: Activity
[26] = Cytotoxicity against human HL-60(TB) cells assessed as cell growth at 50 uM after 48 hrs by SRB assay; conditions: HL-60, 48 h, read-out: Activity
[27] = Cytotoxicity against human BT549 cells assessed as cell growth at 5 nM after 48 hrs by SRB assay; conditions: BT-549, 48 h, read-out: Activity
[28] = Cytotoxicity against human OVCAR4 cells assessed as cell growth at 5 nM after 48 hrs by SRB assay; conditions: OVCAR-4, 48 h, read-out: Activity
[29] = Cytotoxicity against human SF539 cells assessed as cell growth at 50 uM after 48 hrs by SRB assay; conditions: SF-539, 48 h, read-out: Activity
A549 = experiment: Cytotoxicity against human A549 cells assessed as cell growth at 5 nM after 48 hrs by SRB assay; conditions: A549, 48 h, read-out: Activity
SN12C = experiment: Cytotoxicity against human SN12C cells assessed as cell growth at 0.5 uM after 48 hrs by SRB assay; conditions: read-out: Activity
MDA-MB-435 [30] = experiment: Cytotoxicity against human MDA-MB-435 cells assessed as cell growth at 5 nM after 48 hrs by SRB assay; conditions: MDA-MB-435, 48 h, read-out: Activity

`C/C(=C(/c1ccc(O)cc1)c1ccc(OCCN2CCCC2)cc1)c1ccccc1` gave a growth at 100 µM (NCI-H322M) of -91%, a growth at 10 µM [1] of 35% and a growth at 0.1 µM (Malme-3M) of 91%. It also gave a growth at 0.01 µM (NCI-H522) of 88%, a growth at 0.1 µM (SK-MEL-5 [2]) of 102% and a growth at 10 µM [3] of -71%. It also gave a growth at 0.1 µM [4] of 101%, a growth at 0.01 µM [5] of 98% and a growth at 100 µM [6] of -94%. It also gave a growth at 100 µM [7] of -100%, a growth at 0.01 µM [8] of 102% and a growth at 100 µM (MDA-MB-435 [9]) of -100%. It also gave a growth at 0.1 µM (NCI-H23) of 94%, a growth at 0.1 µM [10] of 90% and a growth at 1 µM [11] of 78%. The growth at 0.01 µM [12] was 96%, the growth at 100 µM (SK-MEL-2) was -89% and the growth at 1 µM (K562 [13]) was 81%. For the same compound, the growth at 10 µM [14] was 49% and the growth at 1 µM (M14) was 91%.

`CCCCCCCCCC(=O)Oc1ccc(/C(=C(/C)c2ccccc2)c2ccc(OCCN3CCCC3)cc2)cc1` showed a growth at 0.5 µM (K562 [15]) of 34%, a growth at 0.5 µM (KM12) of 76% and a growth at 0.5 µM [16] of 72%. The growth at 0.05 µM (SK-MEL-5 [17]) was 102%, the growth at 0.005 µM (EKVX) was 102% and the growth at 5 µM (MDA-MB-435 [18]) was 82%. The growth at 50 µM (SK-MEL-28) was -95%, the growth at 0.005 µM [19] was 101% and the growth at 0.5 µM [20] was 91%. The growth at 5 µM [21] was 85%, the growth at 5 µM [22] was 91% and the growth at 5 µM (A498 [23]) was 64%. The growth at 0.5 µM [24] was 87%, the growth at 0.05 µM (A498 [25]) was 53% and the growth at 50 µM [26] was -70%. It also gave a growth at 0.005 µM [27] of 100%, a growth at 0.005 µM [28] of 100% and a growth at 50 µM [29] of -82%. The growth at 0.005 µM (A549) was 101%, the growth at 0.5 µM (SN12C) was 88% and the growth at 0.005 µM (MDA-MB-435 [30]) was 99%.
